Results published in patent US20200190062A1, “HETEROCYCLIC COMPOUND AND PHARMACEUTICAL COMPOSITION COMPRISING SAME” (BEYONDBIO INC., priority 2015, published 2020).

Key:
U-87MG = assay: Inhibition of cancer cell proliferation (MTT); type: cell-based, human
In short: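 Absorbance at 535 nm of DMSO-dissolved formazan (2 h MTT) gives viability versus 0.08% DMSO-treated cells, and GI50 is derived from eight concentrations between 0.004 and 10 uM. Exposure lasts 72 h at 37 °C, 5% CO2, using 3000 cells/well in 10% FBS medium ([…] for NCI-H23, otherwise DMEM).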

HCT116 = assay: Inhibition of cancer cell proliferation (MTT); type: cell-based, human
SK-N-SH = assay: Inhibition of cancer cell proliferation (MTT); type: cell-based, human
In short: (§1)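 72 h MTT proliferation assay; cells seeded at 3000/well (A549, SK-N-SH, SH-SY5Y, NCI-H23) and attached 16 h at 37 °C, then treated at 0.004–10 uM with 0.08% DMSO control. Absorbance at 535 nm read after 2 h MTT; GI50 from viability relative to untreated control.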

SH-SY5Y = assay: Inhibition of cancer cell proliferation (MTT); type: cell-based, human
In short: as §1

CDK6/cyclinD3 = target: T1, CDK6/cyclinD3 (Homo sapiens, UniProt Q00534); assay: Inhibition of CDK enzyme activity (ADP-Glo kinase assay); type: biochemical; conditions: 10 uM ATP, histone H1 substrate; read-out: IC50 CDK6/cyclinD
T1 construct: purchased Merck Millipore
Method: (§2) Test compounds were prepared by dissolving the compounds obtained in the above Examples in dimethylsulfoxide (DMSO) at a concentration of 10 mM. The test compounds were diluted to 200 nM, 50 nM, […], 3.13 nM, 0.78 nM, and 0.2 nM and used in an enzyme reaction.
(§3) CDK enzyme reaction was conducted in a buffer containing 50 mM Tris-HCl (pH 7.5), 10 mM MgCl2, 1 mM EGTA, 1 mM EDTA, and 2 mM DTT. CDK1/cyclinB, CDK2/cylcinE, CDK5/p25, and CDK6/cyclinD3 enzymes commercially available from Merck Millipore were used for CDK1, CDK2, CDK5, and CDK6 enzymes, respectively, and CDK4/cyclinD1 enzyme commercially available from Signalchem (US) was used for CDK4. For CDK1, a reaction proceeded by adding 10 nM CDK1/cyclinB and 0.125 mg/ml histone H1 (Merck Millipore) substrate to the buffer and then adding 10 uM ATP thereto. For CDK2, a reaction was proceeded by adding 10 nM CDK2/cyclinE and 0.125 mg/ml histone H1 substrate to the buffer and then adding 10 uM ATP thereto. For CDK5, a reaction was proceeded by adding 10 nM CDK5/p25 and 0.125 mg/ml histone H1 substrate to the buffer and then adding 10 uM ATP thereto. For CDK4, a reaction was proceeded by adding 20 nM CDK4/cyclinD1 and 0.125 mg/ml Rb protein (Merck Millipore) to the buffer and then adding 10 uM ATP thereto. For CDK6, a reaction was proceeded by adding 50 nM CDK6/cyclinD3 and 0.125 mg/ml histone H1 substrate to the buffer and then adding 10 uM ATP thereto. Each enzyme reaction was incubated at 30° C. for 60 min. Then, the amount of ADP produced was measured using Victor X4 instrument (Perkin Elmer) after generating luminescence using ADP-Glo kinase assay kit (Promega, US). An inhibition effect on each enzyme was represented as a percentage of the luminescence value in the presence of the test compounds relative to the luminescence value without the test compounds. IC50 (nM) is the concentration of the compound to inhibit 50% of the enzyme activity.

CDK4/cyclinD1 = target: T2, CDK4/cyclinD1 (Homo sapiens, UniProt P11802); assay: as above; type: biochemical; conditions: 10 uM ATP, Rb protein substrate; read-out: IC50 CDK4/cyclinD
T2 construct: purchased Signalchem (US)
Method: as §2, §3

CDK1/cyclinB = target: T3, CDK1/cyclinB (Homo sapiens, UniProt P06493); assay: as above; type: biochemical; conditions: 10 uM ATP, histone H1 substrate
T3 construct: purchased Merck Millipore
Method: as §2, §3

CDK2/cyclinE = target: T4, CDK2/cyclinE (Homo sapiens, UniProt P24941); assay: as above; type: biochemical; conditions: 10 uM ATP, histone H1 substrate
T4 construct: purchased Merck Millipore
Method: as §2, §3

CDK5/p25 = target: T5, CDK5/p25 (Homo sapiens, UniProt Q00535); assay: as above; type: biochemical; conditions: 10 uM ATP, histone H1 substrate
T5 construct: purchased Merck Millipore
Method: as §2, §3

NCI-H23 = assay: Inhibition of cancer cell proliferation (MTT); type: cell-based, human
In short: as §1

A549 = assay: Inhibition of cancer cell proliferation (MTT); type: cell-based, human
In short: as §1

T98G = assay: Inhibition of cancer cell proliferation (MTT); type: cell-based, human
In short: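 Plate 3000 cells/well and let them adhere for 16 h. Add compound (0.004, 0.013, 0.04, 0.12, 0.37, 1.1, 3.3, 10 uM; 0.08% DMSO) and culture for 72 h. Add MTT for 2 h, dissolve formazan in DMSO, read at 535 nm, and fit GI50.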

Tau protein = assay: Inhibition of Tau phosphorylation (Western blot, pSer202) in SH-SY5Y cells; type: cell-based; conditions: 4 hrs
Method: SH-SY5Y cells expressing Tau protein were cultured in DMEM containing 10% FBS. 2.5×10^6 cells were placed in a 6-well plate and incubated at 5% CO2 and 37° C. for 16 hrs. The compounds obtained in the above Examples serially diluted ⅓ from 3 uM to 0.5 nM or the compounds in a concentration of 0.3, 0.1, 0.03, 0.01, 0.003 uM were treated for 4 hrs in DMEM containing 5% FBS. After 4 hrs, the culture solution was removed, washed with PBS, and cells were lysed by adding 100 ul of lysis buffer. The lysis buffer consisted of 50 mM Tris-HCl (pH 7.5), 150 mM NaCl, 5 mM EDT, 1 mM EGTA, 50 mM NaF, 1 mM PMSF, 1 mM Na3VO4, 2.5 mM DTT, 1% Triton X-100, and Protease inhibitor (Pierce). The lysed cells were centrifuged at 10,000 rpm and 4° C. for 10 min and the proteins in the supernatant were quantified. 25 ug of the proteins were electrophoresed on a SDS-PAGE gel and transferred to PVDF (Amersharm) membrane. The PVDF membrane was immersed in T-PBS containing 10% skim milk and shaken for 1 hr at room temperature. The primary antibody, Phosph-Tau[pSer202] (Abcam), diluted 1:1500 in T-PBS solution containing 5% skim milk was reacted with the membrane at room temperature for 2 hrs. The membrane was washed with T-PBS. The secondary antibody, Anti-rabbit IgG HRP, diluted 1:5000 was added to the membrane, reacted at room temperature for 1 hr, and washed.

T3 sequence (P06493 whole entry): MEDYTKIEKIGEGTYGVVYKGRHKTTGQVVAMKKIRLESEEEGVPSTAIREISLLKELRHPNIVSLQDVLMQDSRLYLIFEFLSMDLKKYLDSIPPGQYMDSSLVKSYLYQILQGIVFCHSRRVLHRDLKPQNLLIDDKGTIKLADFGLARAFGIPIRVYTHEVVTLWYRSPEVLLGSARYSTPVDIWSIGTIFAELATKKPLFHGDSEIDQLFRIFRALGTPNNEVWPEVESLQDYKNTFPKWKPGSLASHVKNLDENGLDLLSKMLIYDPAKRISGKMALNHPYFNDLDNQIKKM
T3 sequence (P14635 whole entry partner): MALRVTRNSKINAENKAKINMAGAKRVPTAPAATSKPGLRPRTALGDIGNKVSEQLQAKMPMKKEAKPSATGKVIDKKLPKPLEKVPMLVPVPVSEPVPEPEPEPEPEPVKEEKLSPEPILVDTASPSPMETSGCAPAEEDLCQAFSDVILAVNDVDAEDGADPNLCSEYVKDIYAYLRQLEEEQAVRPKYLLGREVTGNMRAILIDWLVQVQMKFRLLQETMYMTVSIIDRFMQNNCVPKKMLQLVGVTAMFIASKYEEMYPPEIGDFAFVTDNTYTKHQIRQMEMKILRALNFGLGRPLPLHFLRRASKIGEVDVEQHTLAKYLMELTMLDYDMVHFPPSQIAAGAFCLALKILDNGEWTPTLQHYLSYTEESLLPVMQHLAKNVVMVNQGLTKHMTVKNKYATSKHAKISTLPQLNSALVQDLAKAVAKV
T1 sequence (Q00534 whole entry): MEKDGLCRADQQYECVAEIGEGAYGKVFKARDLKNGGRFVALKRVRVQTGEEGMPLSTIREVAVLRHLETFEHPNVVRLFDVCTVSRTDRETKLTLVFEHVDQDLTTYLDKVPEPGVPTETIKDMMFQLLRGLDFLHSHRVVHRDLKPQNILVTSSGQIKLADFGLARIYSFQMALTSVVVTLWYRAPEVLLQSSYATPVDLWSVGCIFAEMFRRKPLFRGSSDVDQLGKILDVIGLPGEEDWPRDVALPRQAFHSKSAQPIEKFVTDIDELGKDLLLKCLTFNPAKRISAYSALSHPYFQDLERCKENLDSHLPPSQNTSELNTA
T1 sequence (P30281 whole entry partner): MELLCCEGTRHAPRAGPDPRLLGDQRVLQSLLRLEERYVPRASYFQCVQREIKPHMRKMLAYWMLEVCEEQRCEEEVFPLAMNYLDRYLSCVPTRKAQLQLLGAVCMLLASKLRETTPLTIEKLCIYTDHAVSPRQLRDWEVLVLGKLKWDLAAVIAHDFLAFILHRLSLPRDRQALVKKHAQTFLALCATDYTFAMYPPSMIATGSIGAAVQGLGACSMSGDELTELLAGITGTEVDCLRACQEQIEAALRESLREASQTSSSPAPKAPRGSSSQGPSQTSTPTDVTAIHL
T5 sequence (Q00535 whole entry): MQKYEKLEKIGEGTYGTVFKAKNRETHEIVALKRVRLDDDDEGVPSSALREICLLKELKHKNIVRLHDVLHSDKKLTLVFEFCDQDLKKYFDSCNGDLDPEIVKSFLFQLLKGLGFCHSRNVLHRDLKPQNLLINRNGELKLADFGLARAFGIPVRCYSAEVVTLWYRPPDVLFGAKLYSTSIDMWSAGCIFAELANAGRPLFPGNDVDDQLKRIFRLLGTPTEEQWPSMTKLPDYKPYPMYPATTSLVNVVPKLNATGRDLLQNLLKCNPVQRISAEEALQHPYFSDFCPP
T5 sequence (Q15078 99-307 partner limits assumed): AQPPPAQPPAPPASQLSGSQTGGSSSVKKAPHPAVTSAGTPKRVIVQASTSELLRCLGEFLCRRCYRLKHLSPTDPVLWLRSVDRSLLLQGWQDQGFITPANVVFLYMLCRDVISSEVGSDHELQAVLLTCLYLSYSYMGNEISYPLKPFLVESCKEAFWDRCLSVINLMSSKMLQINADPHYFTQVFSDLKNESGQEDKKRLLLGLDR
T2 sequence (P11802 whole entry): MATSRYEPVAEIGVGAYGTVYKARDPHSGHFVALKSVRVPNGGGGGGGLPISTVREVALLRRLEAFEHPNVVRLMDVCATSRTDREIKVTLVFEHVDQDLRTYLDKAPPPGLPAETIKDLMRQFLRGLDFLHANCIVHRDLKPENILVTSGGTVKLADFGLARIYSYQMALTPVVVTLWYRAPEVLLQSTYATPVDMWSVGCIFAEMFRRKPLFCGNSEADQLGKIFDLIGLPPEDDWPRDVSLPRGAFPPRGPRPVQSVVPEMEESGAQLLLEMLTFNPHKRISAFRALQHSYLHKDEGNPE
T2 sequence (P24385 whole entry partner): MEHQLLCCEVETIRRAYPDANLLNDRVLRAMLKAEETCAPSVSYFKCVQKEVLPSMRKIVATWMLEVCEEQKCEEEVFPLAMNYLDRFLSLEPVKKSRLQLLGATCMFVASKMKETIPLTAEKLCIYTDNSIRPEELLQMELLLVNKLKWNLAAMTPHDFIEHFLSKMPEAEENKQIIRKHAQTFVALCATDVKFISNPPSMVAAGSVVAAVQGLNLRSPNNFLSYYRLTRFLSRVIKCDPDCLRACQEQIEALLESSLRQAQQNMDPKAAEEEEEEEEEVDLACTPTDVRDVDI

Row | Structure (SMILES) | GI50 (U-87MG; Homo sapiens, U-87 MG, 72 h) [nM] | GI50 (HCT116; Homo sapiens, HCT-116, 72 h) [nM] | IC50 (CDK6/cyclinD3) [nM] | IC50 (CDK4/cyclinD1) [nM] | IC50 (CDK1/cyclinB) [nM] | IC50 (CDK2/cyclinE) [nM] | IC50 (CDK5/p25) [nM] | GI50 (NCI-H23; Homo sapiens, NCI-H23, 72 h) [nM] | GI50 (A549; Homo sapiens, A549, 72 h) [nM] | other results
1 | Nc1nccc(-c2nc(-c3ccncc3F)ccc2O)n1 [Example 14, 6-(2-aminopyrimidin-4-yl)-3′-fluoro-[2,4′-bipyridin]-5-ol] | 3410 | 590 | – | – | – | – | – | – | – | GI50 (SK-N-SH; Homo sapiens, SK-N-SH, 72 h): 1040 nM; GI50 (SH-SY5Y; Homo sapiens, SH-SY5Y, 72 h): 540 nM
2 | CN1CCC(c2cc(-c3nc(-c4ccnc(N)c4F)ccc3O)nc(N)n2)CC1 [Example 34, 2′-amino-6-(2-amino-6-(1-methylpiperidin-4-yl)pyrimidin-4-yl)-3′-fluoro-[2,4′-bipyridin]-5-ol] | – | – | 176 | 31.5 | 2.1 | 2.2 | 2.2 | – | – | GI50 (T98G; 72 hrs): 150 nM; GI50 (NCI-H23; 72 hrs): 70 nM; GI50 (U-87MG; 72 hrs): 30 nM; GI50 (HCT116; 72 hrs): 20 nM; GI50 (A549; 72 hrs): 40 nM; Phosphorylation (%) of Tau (Tau protein; 0.003 uM): 103%; Phosphorylation (%) of Tau (Tau protein; 0.01 uM): 27%; Phosphorylation (%) of Tau (Tau protein; 0.03 uM): 13%; Phosphorylation (%) of Tau (Tau protein; 0.1 uM): 21%; Phosphorylation (%) of Tau (Tau protein; 0.3 uM): 21%
3 | Nc1nccc(-c2cc(-c3ccnc(N)n3)c(O)cn2)n1 [Example 3, 4,6-bis(2-aminopyrimidin-4-yl)pyridin-3-ol] | 2640 | 1150 | – | – | – | – | – | – | – | GI50 (SK-N-SH; Homo sapiens, SK-N-SH, 72 h): 1430 nM; GI50 (SH-SY5Y; Homo sapiens, SH-SY5Y, 72 h): 880 nM
4 | Nc1nccc(-c2nc(-c3ccnc(N)c3F)ccc2O)n1 [Example 69, 2′-amino-6-(2-aminopyrimidin-4-yl)-3′-fluoro-[2,4′-bipyridin]-5-ol 2malonate] | – | – | – | – | – | – | – | – | – | GI50 (U-87MG; 72 hrs): 90 nM; GI50 (HCT116; 72 hrs): 80 nM; GI50 (SK-N-SH; 72 hrs): 20 nM; GI50 (SH-SY5Y; 72 hrs): 4 nM
5 | Nc1nc(-c2nc(-c3ccnc(N)c3F)ccc2O)cc(C2CCNCC2)n1 [Example 33, 2′-amino-6-(2-amino-6-(piperidin-4-yl)pyrimidin-4-yl)-3′-fluoro-[2,4′-bipyridin]-5-ol] | 150 | 50 | 240 | 39.3 | 17.1 | 3.7 | 9.89 | 1710 | 190 | GI50 (T98G; Homo sapiens, T98G, 72 h): 260 nM
6 | CC(C)c1cnc(N)nc1-c1nc(-c2ccnc(N)c2F)ccc1O [Example 104] | – | – | 54.1 | 15.2 | 1.3 | 1.6 | 0.8 | – | – | GI50 (T98G; 72 hrs): 50 nM; GI50 (NCI-H23; 72 hrs): 80 nM; GI50 (U-87MG; 72 hrs): 70 nM; GI50 (HCT116; 72 hrs): 30 nM; GI50 (A549; 72 hrs): 80 nM

More lines, in order of falling GI50 (HCT116; Homo sapiens, HCT-116, 72 h), values ahead:

Row | GI50 (U-87MG; Homo sapiens, U-87 MG, 72 h) [nM] | GI50 (HCT116; Homo sapiens, HCT-116, 72 h) [nM] | IC50 (CDK6/cyclinD3) [nM] | IC50 (CDK4/cyclinD1) [nM] | IC50 (CDK1/cyclinB) [nM] | IC50 (CDK2/cyclinE) [nM] | IC50 (CDK5/p25) [nM] | GI50 (NCI-H23; Homo sapiens, NCI-H23, 72 h) [nM] | GI50 (A549; Homo sapiens, A549, 72 h) [nM] | Structure (SMILES) | other results
7 | – | 30 | 61.5 | 35.9 | 2.3 | 0.59 | 3.13 | 100 | 180 | CC(C)c1cc(-c2nc(-c3ccnc(N)c3F)ccc2O)nc(N)n1 [Example 31, 2′-amino-6-(2-amino-6-isopropylpyrimidin-4-yl)-3′-fluoro-[2,4′-bipyridin]-5-ol] | –
8 | – | 20 | 33.8 | 342 | 0.6 | 0.9 | 0.7 | – | – | Cc1cc(-c2nc(-c3ccnc(N)c3F)ccc2O)nc(N)n1 [Example 24, 2′-amino-6-(2-amino-6-methylpyrimidin-4-yl)-3′-fluoro-[2,4′-bipyridin]-5-ol] | –
9 | 30 | 10 | 86.8 | > 200 | 4 | 10.8 | 2.8 | 40 | 20 | CN1CCN(c2cc(-c3nc(-c4ccnc(N)c4F)ccc3O)nc(N)n2)CC1 [Example 53, 2′-amino-6-(2-amino-6-(4-methylpiperazin-1-yl)pyrimidin-4-yl)-3′-fluoro-[2,4′-bipyridin]-5-ol] | –
10 | – | 10 | 59.6 | 63.7 | 0.7 | 14.6 | 1.9 | 30 | 20 | CN(C)c1cc(-c2nc(-c3ccnc(N)c3F)ccc2O)nc(N)n1 [Example 52, 2′-amino-6-(2-amino-6-(dimethylamino)pyrimidin-4-yl)-3′-fluoro-[2,4′-bipyridin]-5-ol] | –
11 | 10 | 3 | 35.8 | 81.3 | 1 | 4.5 | 2.8 | 10 | 10 | Nc1nc(-c2nc(-c3ccnc(N)c3F)ccc2O)cc(N2CCOCC2)n1 [Example 51, 2′-amino-6-(2-amino-6-morpholinopyrimidin-4-yl)-3′-fluoro-[2,4′-bipyridin]-5-ol] | GI50 (T98G; Homo sapiens, T98G, 72 h): 10 nM
